Calls of active or inactive are those of the source. The rule behind the calls is not given here.
Test system: CCRIS mutagenicity, Ames/micronucleus/aberration tests
Assay: CCRIS mutagenicity studies
[1] = Test System: AMES SALMONELLA TYPHIMURIUM, Strain/Indicator: TA100, Metabolic Activation: NONE, Method: STANDARD PLATE

In the case of `CCc1c2ccccc2cc2c1ccc1ccccc12`, the mutagenic call (Test System: AMES SALMONELLA TYPHIMURIUM, Strain/Indicator: TA98, Method: STANDARD PLATE) is reported as “active; positive”, the mutagenic call (Test System: AMES SALMONELLA TYPHIMURIUM, Strain/Indicator: TA100, Metabolic Activation: RAT, LIVER, S-9, PHENOBARBITAL, Method: STANDARD PLATE) is reported as “inactive; negative” and the mutagenic call (Test System: AMES SALMONELLA TYPHIMURIUM, Strain/Indicator: TA100, Method: STANDARD PLATE) is reported as “active; positive”.
With `O[C@H]1C=Cc2c(ccc3c(Cl)c4ccccc4cc23)[C@@H]1O` the mutagenic call (Test System: AMES SALMONELLA TYPHIMURIUM, Strain/Indicator: TA100, Metabolic Activation: RAT, LIVER, S-9, PCB, Method: STANDARD PLATE) was “active; positive”.
With `NS(=O)(=O)c1cccc2cccnc12` the mutagenic call (Test System: AMES SALMONELLA TYPHIMURIUM, Strain/Indicator: TA100, Metabolic Activation: S-9, Method: PREINCUBATION) was “inactive; negative”.
In the case of `CC(C)=CCl`, the mutagenic call (End Point: IN VITRO CHROMOSOMAL ABERRATIONS, Test System: CHO CELLS, Metabolic Activation: NONE) is reported as “inactive; negative”, the mutagenic call (End Point: IN VITRO CHROMOSOMAL ABERRATIONS, Test System: CHO CELLS, Metabolic Activation: RAT, LIVER, S-9, AROCLOR 1254) is reported as “inactive; negative” and the mutagenic call (Test System: AMES SALMONELLA TYPHIMURIUM, Strain/Indicator: TA98, Metabolic Activation: HAMSTER, LIVER, S-9, AROCLOR 1254 (10%), Method: PREINCUBATION) is reported as “inactive; negative”. The mutagenic call (Test System: AMES SALMONELLA TYPHIMURIUM, Strain/Indicator: TA98, Metabolic Activation: NONE, Method: PREINCUBATION) was “inactive; negative”, the mutagenic call (Test System: AMES SALMONELLA TYPHIMURIUM, Strain/Indicator: TA98, Metabolic Activation: RAT, LIVER, S-9, AROCLOR 1254 (10%), Method: PREINCUBATION) was “inactive; negative” and the mutagenic call (Test System: AMES SALMONELLA TYPHIMURIUM, Strain/Indicator: TA100, Metabolic Activation: HAMSTER, LIVER, S-9, AROCLOR 1254 (10%), Method: PREINCUBATION) was “inactive; negative”. The mutagenic call (Test System: AMES SALMONELLA TYPHIMURIUM, Strain/Indicator: TA100, Metabolic Activation: NONE, Method: PREINCUBATION) was “inactive; negative”, the mutagenic call (Test System: AMES SALMONELLA TYPHIMURIUM, Strain/Indicator: TA100, Metabolic Activation: RAT, LIVER, S-9, AROCLOR 1254 (10%), Method: PREINCUBATION) was “inactive; negative” and the mutagenic call (Test System: AMES SALMONELLA TYPHIMURIUM, Strain/Indicator: TA102, Metabolic Activation: RAT, LIVER, S-9, PHENOBARBITAL AND 5,6-BENZOFLAVONE, Method: STANDARD PLATE) was “inactive; negative”. The mutagenic call (Test System: AMES SALMONELLA TYPHIMURIUM, Strain/Indicator: TA1535, Metabolic Activation: HAMSTER, LIVER, S-9, AROCLOR 1254 (10%), Method: PREINCUBATION) was “inactive; negative”, the mutagenic call (Test System: AMES SALMONELLA TYPHIMURIUM, Strain/Indicator: TA1535, Metabolic Activation: NONE, Method: PREINCUBATION) was “inactive; negative” and the mutagenic call (Test System: AMES SALMONELLA TYPHIMURIUM, Strain/Indicator: TA1535, Metabolic Activation: RAT, LIVER, S-9, AROCLOR 1254 (10%), Method: PREINCUBATION) was “inactive; negative”. The mutagenic call (Test System: AMES SALMONELLA TYPHIMURIUM, Strain/Indicator: TA1537, Metabolic Activation: HAMSTER, LIVER, S-9, AROCLOR 1254 (10%), Method: PREINCUBATION) was “inactive; negative”, the mutagenic call (Test System: AMES SALMONELLA TYPHIMURIUM, Strain/Indicator: TA1537, Metabolic Activation: NONE, Method: PREINCUBATION) was “inactive; negative” and the mutagenic call (Test System: AMES SALMONELLA TYPHIMURIUM, Strain/Indicator: TA1537, Metabolic Activation: RAT, LIVER, S-9, AROCLOR 1254 (10%), Method: PREINCUBATION) was “inactive; negative”. The mutagenic call (Test System: AMES SALMONELLA TYPHIMURIUM, Strain/Indicator: TA2638, Metabolic Activation: RAT, LIVER, S-9, PHENOBARBITAL AND 5,6-BENZOFLAVONE, Method: STANDARD PLATE) was “inactive; negative”, the mutagenic call (Test System: E. COLI, Strain/Indicator: WP2 (PKM101), Metabolic Activation: RAT, LIVER, S-9, PHENOBARBITAL AND 5,6-BENZOFLAVONE, Method: STANDARD PLATE) was “inactive; negative” and the mutagenic call (Test System: E. COLI, Strain/Indicator: WP2 UVRA (PKM101), Metabolic Activation: RAT, LIVER, S-9, PHENOBARBITAL AND 5,6-BENZOFLAVONE, Method: STANDARD PLATE) was “inactive; negative”. The mutagenic call (Test System: MOUSE LYMPHOMA, Strain/Indicator: L5178Y (TK+/TK-), Metabolic Activation: RAT, LIVER, S-9, AROCLOR 1254, Method: SUSPENSION/PLATE) was “active; positive. reevaluation of results: positive” and the mutagenic call (Test System: Mouse lymphoma, Strain/Indicator: L5178Y (tk+/tk-), Metabolic Activation: None, Method: Suspension/plate) was “inactive; negative”.
For `Cn1c(N)nc2cc(O)ccc21`, the mutagenic call (Test System: AMES SALMONELLA TYPHIMURIUM, Strain/Indicator: TA98, Metabolic Activation: RAT, LIVER, S-9, AROCLOR 1254, Method: PREINCUBATION) was “inactive; negative” and the mutagenic call (Test System: AMES SALMONELLA TYPHIMURIUM, Strain/Indicator: TA100, Metabolic Activation: RAT, LIVER, S-9, AROCLOR 1254, Method: PREINCUBATION) was “inactive; negative”.
`CS(=O)CC[C@H](N)C(=O)O.Cc1ccc(NCC(=O)N(CC(=O)O)CC(=O)O)c(C)c1.[H+].[H+].[Pt]` was tested, and the mutagenic call (Test System: MOUSE LYMPHOMA, Strain/Indicator: L5178Y(LY-R) (HGPRT)/6-THIOGUANINE, Metabolic Activation: NONE) was “active; positive”.
`C=C1/C(=C\C=C2/CCC[C@]3(C)[C@@H]([C@H](C)CC[C@@H](O)C(C)C)CC[C@@H]23)C[C@@H](O)C[C@@H]1O` was tested, and the mutagenic call (Test System: AMES SALMONELLA TYPHIMURIUM, Strain/Indicator: TA98, Metabolic Activation: NONE, Method: STANDARD PLATE) was “inactive; negative”, the mutagenic call (Test System: AMES SALMONELLA TYPHIMURIUM, Strain/Indicator: TA98, Metabolic Activation: RAT, LIVER, S-9, PHENOBARBITAL AND 5,6-BENZOFLAVONE, Method: PREINCUBATION) was “inactive; negative” and the mutagenic call [1] was “inactive; negative”. For the same compound, the mutagenic call (Test System: AMES SALMONELLA TYPHIMURIUM, Strain/Indicator: TA100, Metabolic Activation: RAT, LIVER, S-9, PHENOBARBITAL AND 5,6-BENZOFLAVONE, Method: PREINCUBATION) was “inactive; negative”, the mutagenic call (Test System: AMES SALMONELLA TYPHIMURIUM, Strain/Indicator: TA1535, Metabolic Activation: NONE, Method: STANDARD PLATE) was “inactive; negative” and the mutagenic call (Test System: AMES SALMONELLA TYPHIMURIUM, Strain/Indicator: TA1535, Metabolic Activation: RAT, LIVER, S-9, PHENOBARBITAL AND 5,6-BENZOFLAVONE, Method: PREINCUBATION) was “inactive; negative”. The mutagenic call (Test System: AMES SALMONELLA TYPHIMURIUM, Strain/Indicator: TA1537, Metabolic Activation: NONE, Method: STANDARD PLATE) was “inactive; negative”, the mutagenic call (Test System: AMES SALMONELLA TYPHIMURIUM, Strain/Indicator: TA1537, Metabolic Activation: RAT, LIVER, S-9, PHENOBARBITAL AND 5,6-BENZOFLAVONE, Method: PREINCUBATION) was “inactive; negative” and the mutagenic call (Test System: AMES SALMONELLA TYPHIMURIUM, Strain/Indicator: TA1538, Metabolic Activation: NONE, Method: STANDARD PLATE) was “inactive; negative”. The mutagenic call (Test System: AMES SALMONELLA TYPHIMURIUM, Strain/Indicator: TA1538, Metabolic Activation: RAT, LIVER, S-9, PHENOBARBITAL AND 5,6-BENZOFLAVONE, Method: PREINCUBATION) was “inactive; negative”, the mutagenic call (Test System: E. COLI, Strain/Indicator: WP2 UVRA, Metabolic Activation: NONE, Method: STANDARD PLATE) was “inactive; negative” and the mutagenic call (Test System: E. COLI, Strain/Indicator: WP2 UVRA, Metabolic Activation: RAT, LIVER, S-9, PHENOBARBITAL AND 5,6-BENZOFLAVONE, Method: PREINCUBATION) was “inactive; negative”.
With `O=CNc1ccc(Oc2ccc(Cl)cc2)cc1` the mutagenic call [1] was “inactive; negative” and the mutagenic call (Test System: AMES SALMONELLA TYPHIMURIUM, Strain/Indicator: TA100, Metabolic Activation: RAT, LIVER, S-9, KANECLOR 500, Method: STANDARD PLATE) was “active; positive”.

From PubChem BioAssay AID1259407 (Chemical Carcinogenesis Research Information System (CCRIS), 2018)
